Source: patent publication US20230201216A1, “AZELASTINE AS ANTIVIRAL TREATMENT” (priority 2020, published 2023)
Counter-ions that a name gives are not always drawn. Like-named read-outs stand apart in the source and are kept apart here.

What was measured:
SARS-CoV-2 [1] = details: cells expressing TMPRSS2, including Calu-3; ref. Hoffmann et al.; cited from earlier work
SARS-CoV-2 [2] = format: cell-based; details: for cytopathic effect (CPE) score: Vero E6, MOI 0.1, 48 hours post infection; for protective effect against SARS-CoV-2 cytopathic effect: Vero E6
SARS-CoV-2 [3] = format: cell-based
RSV Long strain = test: RSV infection of HEp-2 cells, spot count and viral genome copy number by RT-PCR; format: cell-based, Respiratory Syncytial Virus; details: for RSV infection of cells by spot count, compared to vehicle (DMSO) treated controls: all 3 settings, HEp-2
influenza H1N1 = format: cell-based; details: 24 h post-infection, compared to buffer treated cells
IL-8 = format: cell-based, human
RANTES = format: cell-based, human
[4] = test system: MucilAir human nasal epithelial cells
SARS-CoV-2 [5] = format: cell-based; details: for viral particle/μL, co-administration / viral particle/μL, post-infection administration: Vero E6, 48 h post infection, median; for reduction of viral particle numbers (up to): Vero E6
SARS-CoV-2 B.1.351 = format: cell-based
SARS-CoV-2 [6] = details: without virus infection; MucilAir

## CCN(CCO)CCCC(C)Nc1ccnc2cc(Cl)ccc12 (centres unmarked) [Hydroxychloroquine sulfate]
SARS-CoV-2 [1]
  potency on cells expressing the surface protease TMPRSS2: significantly loses its potency

## CN1CCCC(n2nc(Cc3ccc(Cl)cc3)c3ccccc3c2=O)CC1 (centres unmarked) [Azelastine-HCl]
SARS-CoV-2 [2]; 3.125 μM
  cytopathic effect (CPE) score: 2
SARS-CoV-2 [2]; 6.25 μM
  cytopathic effect (CPE) score: 2
SARS-CoV-2 [3]
  reduction of viral particle numbers: over 90%
SARS-CoV-2 [3]; 50 μM, Calu-3, MOI 0.01, 48 h
  reduction of viral particle numbers (up to): > 99%
RSV Long strain; 3.2 μM
  RSV infection of cells by spot count, compared to vehicle (DMSO) treated controls: ~50%
RSV Long strain; 6.4 μM
  RSV infection of cells by spot count, compared to vehicle (DMSO) treated controls: ~50%
RSV Long strain; 6.4 μM, co-administration, experiment #1
  Viral genome copy relative to DMSO: 46.65%
RSV Long strain; 6.4 μM, co-administration, experiment #2
  Viral genome copy relative to DMSO: 53.22%
RSV Long strain; 6.4 μM, preventive, experiment #1
  Viral genome copy relative to DMSO: 65.52%
RSV Long strain; 6.4 μM, preventive, experiment #2
  Viral genome copy relative to DMSO: 54.71%
RSV Long strain; 6.4 μM, therapeutic, experiment #1
  Viral genome copy relative to DMSO: 47.96%
RSV Long strain; 6.4 μM, therapeutic, experiment #2
  Viral genome copy relative to DMSO: 51.05%
Influenza H1N1; 0.01% azelastine-HCl
  decrease in the viral copy: ~0.9 log
  reduction of viral genome copy: 87.4%
Influenza H1N1; 0.02% azelastine-HCl
  decrease in the viral copy: ~1.9 log
  reduction of viral genome copy: 98.74%
IL-8
  IL-8 levels compared to buffer control: significantly reduced
RANTES
  RANTES levels compared to buffer control: significantly reduced
[4]; 0.02% concentration, infected cells
  cytotoxicity: no cytotoxicity
[4]; 0.02% concentration, non-infected cells
  cytotoxicity: 6.5%
[4]; lower (0.01%) concentration
  cytotoxicity: no cytotoxicity

## CN1CCCC(n2nc(Cc3ccc(Cl)cc3)c3ccccc3c2=O)CC1 (centres unmarked) [Azelastine, 4-[(4-chlorophenyl)methyl]-2-(1-methylazepan-4-yl)phthalazin-1-one]
SARS-CoV-2 [5]; 3.125 μM
  viral particle/μL, co-administration: 98.4 viral particle/μL
  viral particle/μL, post-infection administration: 138 viral particle/μL
SARS-CoV-2 [5]; 6.25 μM
  viral particle/μL, co-administration: 15.45 viral particle/μL
  viral particle/μL, post-infection administration: 68.4 viral particle/μL
SARS-CoV-2 [5]; 12.5 μM
  viral particle/μL, co-administration: 12.25 viral particle/μL
  viral particle/μL, post-infection administration: 52 viral particle/μL
SARS-CoV-2 [5]; 25 μM
  viral particle/μL, co-administration: 0.2 viral particle/μL
  viral particle/μL, post-infection administration: 6.865 viral particle/μL
SARS-CoV-2 [5]; co-administration (simulating prevention)
  reduction of viral particle numbers (up to): > 99%
SARS-CoV-2 [5]; post-infection administration (post-exposure or therapy)
  reduction of viral particle numbers (up to): > 97%
SARS-CoV-2 B.1.351
  inhibition (low viral numbers): over 90%
SARS-CoV-2 [6]
  tissue morphology of treated versus control cells: No difference in tissue morphology

## Maraviroc
SARS-CoV-2 [2]; 3.125 μM
  cytopathic effect (CPE) score: 4
SARS-CoV-2 [2]; 6.25 μM
  cytopathic effect (CPE) score: 4
SARS-CoV-2 [2]; 12.5 μM
  cytopathic effect (CPE) score: 3
SARS-CoV-2 [2]; 25 μM
  cytopathic effect (CPE) score: 3
SARS-CoV-2 [2]; 50 μM
  cytopathic effect (CPE) score: 3
SARS-CoV-2 [2]; higher concentrations (12.5 to 50 μM)
  protective effect against SARS-CoV-2 cytopathic effect: only marginal protective effect
SARS-CoV-2 [2]; lower concentrations
  protective effect against SARS-CoV-2 cytopathic effect: not effective at all
